These results are taken from patent US20110040086A1, “Novel Beta-Lactam Antibiotics, Methods for Their Production, and Their Use” (DRITTE PATENTPORTFOLIO BETEILIGUNGSGESELLSCHAFT MB, priority 2007, published 2011).

What all share (assay): agar diffusion test (Test System II, multi-resistant germs)
Conditions in all cases: quantity 0.09 μmol
For orientation: In agar diffusion tests the substance spreads into inoculated agar from a disc or well.

The subject of one assay is S. aureus ATCC 6538. Format: cell-based, Staphylococcus aureus. In outline: (§1)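 A McFarland 0.5 bacterial suspension in physiological saline is spread vertically, horizontally and transversely over Müller-Hinton agar II. Three sensi-discs bearing 10, 50 and 100 μg of test compound go onto each plate, which then incubates at 37 °C for 18-20 h before zone diameters are recorded.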

The next assay concerns S. aureus 38418. Format: cell-based, Staphylococcus aureus. In short, it runs like this: as §1
The test system of a further assay is S. epidermidis 847. Format: cell-based, Staphylococcus epidermidis. In short, it runs like this:
as §1

For assay [1], the system named is Enterococcus faecalis 769. Format: cell-based. The arrangement: key: r = resistant (no detectable zone of inhibition). In short, it runs like this: as §1
The subject of assay [2] is Staphylococcus haemolyticus 535. Format: cell-based. Set-up: key: r = resistant (no detectable zone of inhibition). In outline:
as §1

Assay [3] deals with Staphylococcus aureus 315. Format: cell-based. Set-up: key: r = resistant (no detectable zone of inhibition). In short, it runs like this: as §1
The test system of a further assay is S. aureus 520. Format: cell-based, Staphylococcus aureus. Set-up: key: r = resistant (no detectable zone of inhibition). In short, it runs like this:
as §1

Another assay has as its system S. aureus 36881. Format: cell-based, Staphylococcus aureus. Set-up: key: r = resistant (no detectable zone of inhibition). In outline: as §1
A further assay concerns S. aureus 33490. Format: cell-based, Staphylococcus aureus. Set-up: key: r = resistant (no detectable zone of inhibition). In outline:
as §1

Assay [4] deals with Staphylococcus aureus col. Format: cell-based. The procedure: The test substances are deposited in stepped quantities (10 μg, 50 μg, 100 μg) onto active ingredient carriers (sensi-discs). For this purpose, the test substances are dissolved in methanol or A. dest. according to their solubility. Each inoculated plate is fitted with 3 test sheets.
Test System II (Effect Against Multi-Resistant Germs)
For this purpose, bacteria is cultivated on Müller-Hinton-Agar II plates.
With 1-1.5 ml physiological saline solution, a bacteria suspension of McFarland 0.5 (corresponds to a bacteria density of 150×10^6 germs) is produced. Then, with a sterile glass rod, a small drop of bacteria suspension is placed on the Müller-Hinton-Agar plate and coated in three layers (vertical, horizontal, and transverse). Thereafter, the sensi-discs with the novel semi-synthetic test substances are placed on top. The fitted plates are incubated for 18-20 hours at 37° C. After incubation, the diameters of the zones of inhibition are read as a measure for the antimicrobial activity of the novel semi-synthetic test substances.

The subject of a further assay is S. epidermidis 125. Format: cell-based, Staphylococcus epidermidis. In outline:
as §1

Structures are written as SMILES.

Regarding `CC1(C)SC2C(NC(=O)C(NC3=C(C(=O)NCCO)C(=O)C=CC3=O)c3ccc(O)cc3)C(=O)N2C1C(=O)O` (centres unmarked) [6-{2-[2-(2-hydroxyethylcarbamoyl)-3,6-dioxocyclohexa-1,4-dienylamino]-2-(4-hydroxyphenyl)-acetylamino-penicillanic acid], the “Diameter of zone of inhibition” value in the assay on S. aureus ATCC 6538 was 44 mm; with S. aureus 38418 it was 34 mm; with S. epidermidis 847 it was 24 mm; in [1], 28 mm; in assay [2] it was “r”; in assay [3], “r”. Moreover, the “Diameter of zone of inhibition” value in the assay with S. aureus 520 is given as “r”; in the assay with S. aureus 36881, “r^2”; in the assay on S. aureus 33490, 18 mm; in assay [4], 32 mm; in the assay on S. epidermidis 125, 28 mm.
